Source: ChEMBL document CHEMBL3046745, “Sensitivity of Cucumber Powdery Mildew Fungus (Sphaerotheca fuliginea) to Several Fungicides” (J Pestic Sci, 1991)

What was measured:
[1] = tested on: Podosphaera fuliginea; assay: Antifungal activity against Podosphaera fuliginea isolate N-2 in cucumber plants by leaf disc method; format: functional, organism-based
[2] = tested on: Podosphaera fuliginea; assay: Resistant ratio, ratio of EC50 for Podosphaera fuliginea isolate S-2 to EC50 for Podosphaera fuliginea isolate K-7; format: functional
[3] = tested on: Podosphaera fuliginea; assay: Antifungal activity against Podosphaera fuliginea isolate N-1 in cucumber plants by leaf disc method; format: functional, organism-based
[4] = tested on: Podosphaera fuliginea; assay: Antifungal activity against Podosphaera fuliginea isolate K-7 in cucumber plants assessed as percentage of infected leaf area at 125 ppm treated 3 times at 7-day interval by foliar spray test; format: functional
[5] = tested on: Podosphaera fuliginea; assay: Antifungal activity against Podosphaera fuliginea isolate N-1 in cucumber plants assessed as percentage of infected leaf area at 125 ppm treated 3 times at 7-day interval by foliar spray test; format: functional
[6] = tested on: Podosphaera fuliginea; assay: Antifungal activity against Podosphaera fuliginea isolate S-2 in cucumber plants assessed as percentage of infected leaf area at 125 ppm treated 3 times at 7-day interval by foliar spray test; format: functional
[7] = tested on: Podosphaera fuliginea; assay: Antifungal activity against Podosphaera fuliginea isolate S-2 in cucumber plants by leaf disc method; format: functional, organism-based
[8] = tested on: Podosphaera fuliginea; assay: Resistant ratio, ratio of EC50 for Podosphaera fuliginea isolate N-1 to EC50 for Podosphaera fuliginea isolate K-7; format: functional
[9] = tested on: Podosphaera fuliginea; assay: Antifungal activity against Podosphaera fuliginea isolate K-7 in cucumber plants by leaf disc method; format: functional, organism-based
[10] = tested on: Podosphaera fuliginea; assay: Antifungal activity against Podosphaera fuliginea isolate N-2 in cucumber plants assessed as percentage of infected leaf area at 125 ppm treated 3 times at 7-day interval by foliar spray test; format: functional
[11] = tested on: Podosphaera fuliginea; assay: Resistant ratio, ratio of EC50 for Podosphaera fuliginea isolate N-2 to EC50 for Podosphaera fuliginea isolate K-7; format: functional
[12] = tested on: Podosphaera fuliginea; assay: Antifungal activity against Podosphaera fuliginea isolate S-2 in cucumber plants assessed as percentage of infected leaf area at 62.5 ppm treated 3 times at 7-day interval by foliar spray test; format: functional
[13] = tested on: Podosphaera fuliginea; assay: Antifungal activity against Podosphaera fuliginea isolate K-7 in cucumber plants assessed as percentage of infected leaf area at 62.5 ppm treated 3 times at 7-day interval by foliar spray test; format: functional
[14] = tested on: Podosphaera fuliginea; assay: Antifungal activity against Podosphaera fuliginea isolate N-1 in cucumber plants assessed as percentage of infected leaf area at 62.5 ppm treated 3 times at 7-day interval by foliar spray test; format: functional
[15] = tested on: Podosphaera fuliginea; assay: Antifungal activity against Podosphaera fuliginea isolate N-2 in cucumber plants assessed as percentage of infected leaf area at 62.5 ppm treated 3 times at 7-day interval by foliar spray test; format: functional
[16] = tested on: Podosphaera fuliginea; assay: Antifungal activity against Podosphaera fuliginea isolate N-1 in cucumber plants assessed as percentage of infected leaf area at 25 ppm treated 3 times at 7-day interval by foliar spray test; format: functional
[17] = tested on: Podosphaera fuliginea; assay: Antifungal activity against Podosphaera fuliginea isolate K-7 in cucumber plants assessed as percentage of infected leaf area at 25 ppm treated 3 times at 7-day interval by foliar spray test; format: functional
[18] = tested on: Podosphaera fuliginea; assay: Antifungal activity against Podosphaera fuliginea isolate S-2 in cucumber plants assessed as percentage of infected leaf area at 25 ppm treated 3 times at 7-day interval by foliar spray test; format: functional
[19] = tested on: Podosphaera fuliginea; assay: Antifungal activity against Podosphaera fuliginea isolate N-2 in cucumber plants assessed as percentage of infected leaf area at 25 ppm treated 3 times at 7-day interval by foliar spray test; format: functional
[20] = tested on: Podosphaera fuliginea; assay: Antifungal activity against Podosphaera fuliginea isolate N-1 in cucumber plants assessed as percentage of infected leaf area at 466.7 ppm treated 3 times at 7-day interval by foliar spray test; format: functional
[21] = tested on: Podosphaera fuliginea; assay: Antifungal activity against Podosphaera fuliginea isolate S-2 in cucumber plants assessed as percentage of infected leaf area at 466.7 ppm treated 3 times at 7-day interval by foliar spray test; format: functional
[22] = tested on: Podosphaera fuliginea; assay: Antifungal activity against Podosphaera fuliginea isolate N-2 in cucumber plants assessed as percentage of infected leaf area at 466.7 ppm treated 3 times at 7-day interval by foliar spray test; format: functional
[23] = tested on: Podosphaera fuliginea; assay: Antifungal activity against Podosphaera fuliginea isolate K-7 in cucumber plants assessed as percentage of infected leaf area at 466.7 ppm treated 3 times at 7-day interval by foliar spray test; format: functional

| SMILES | EC50 [1] [ppm] | Ratio EC50 [2] | EC50 [3] | EC50 [7] | Ratio EC50 [8] | EC50 [9] | Ratio EC50 [11] | other results |
| --- | --- | --- | --- | --- | --- | --- | --- | --- |
| Cc1ccc2nc3sc(=O)sc3nc2c1 [CHINOMETHIONAT] | 3.35 | 3.9 | 4.83 ppm | 4.95 ppm | 3.8 | 1.27 ppm | 2.6 | Activity [4]: 96.5%; Activity [5]: 91.1%; Activity [6]: 91.3%; Activity [10]: 94.9% |
| CCCCc1c(C)nc(N(C)C)nc1O [DIMETHIRIMOL] | 6.45 | 157.3 | 6.6 ppm | 4.64 ppm | 223.7 | 2.95 ×10⁻² ppm | 218.6 | Activity [12]: 55.2%; Activity [13]: 98.8%; Activity [14]: 49.4%; Activity [15]: 47.4% |
| CC(C)(C)C(=O)C(Oc1ccc(Cl)cc1)n1cncn1 (centres undefined) [TRIADIMEFON] | 5.7 | 1.8 | 9.72 ×10⁻¹ ppm | 1.82 ×10⁻² ppm | 94.4 | 1.03 ×10⁻² ppm | 553.4 | Activity [16]: 76%; Activity [17]: 98.8%; Activity [18]: 100%; Activity [19]: 45.8% |
| COC(=O)NC(=S)Nc1ccccc1NC(=S)NC(=O)OC [THIOPHANATE METHYL] | 719 | 17675.3 | 680 ppm | 479 ppm | 25092.3 | 2.71 ×10⁻² ppm | 26531.4 | Activity [20]: 5.1%; Activity [21]: 0%; Activity [22]: 11.9%; Activity [23]: 97.8% |
